These results are taken from patent publication US20050037956A1, “Screening method for agents useful in treating diabetes” (priority 2001, published 2005).

One assay concerns PAI-1 expression. Description: PAI-1 induction by insulin in adipocytes in presence of PI3K or MEK1 inhibitors. Type of assay: cell-based. The conditions noted are these: adipocytes treated by insulin in presence of inhibitor. The protocol:
(§1) Adipocyte differentiation was monitored by staining lipids with oil-red O. Briefly, cells were washed twice with phosphate buffered saline (PBS) and fixed with 3.7% formaldehyde solution for 1 h. After washing twice with PBS, cells were stained with oil-red O [60:40 (v/v) dilution in water of 0.5% stock solution (v/v, in isopropanol)] for 1 h. Cells were then washed twice with PBS and twice with water. Lipid-positive cells started to appear after the third day of induction and reached more than 90% by the eighth day. PPARγ (peroxisome proliferator-activated receptor gamma) mRNA, another marker of adipocyte differentiation, also started to appear at the third day and reached a plateau by the 5th day. For RNA analysis, total RNA (12 μg), prepared with acid guanidinium thiocyanate-phenol-chloroform method, was resolved by agarose gel electrophoresis under denaturing conditions and transferred to a nylon membrane as described (Northern blotting) (Ziegler, A., et al., 1991, J Biol Chem 266(31): 21067-74). Equal RNA loading and transfer to nylon membranes were confirmed by staining rRNA with methylene blue (Herrin, D. L. and G. W. Schmidt, 1988, Biotechniques 6(3): 196-7, 199-200). […] Levels of specific RNA were measured using a Molecular Dynamic PhosphorImager. […]

Assay [1] relates to pRB-E2F interaction (E2F-pRB complex). Briefly: Electromobility shift assay (EMSA) with E2pro oligonucleotide and nuclear extracts from day 8 NIH3T3-L1 cells, peptide added to binding reaction. Conditions: in vitro, increasing peptide concentration added to binding reaction, day 8 NIH3T3-L1 nuclear extracts. The protocol:
Changes in E2F DNA-binding patterns during adipogenesis were investigated. Nuclear extracts were prepared from NIH3T3-L1 cells at different times during induction of differentiation and their E2F DNA-binding activity was assessed by DNA gel shift assays using a radio active E2pro oligonucleotide corresponding to two tandem E2F binding sites in the adenovirus E2 promoter. Oligonucleotide probes were radiolabeled using E. coli polynucleotide kinase and {γ-32P}ATP. The oligonucleotides used for electromobility shift assays (EMSA) were as follows (only upper strands are given): E2pro (corresponding to the −72 to −32 region of the adenovirus E2 promoter; E2F binding site), 5′-[…]-3′ (SEQ ID NO:1); CycD1 (E2F binding site from the cyclin D1 promoter), 5′-[…]-3′ (SEQ ID NO:2); CycD1m, 5′-[…]-3′ (SEQ ID NO:3, mutated nucleotides in bold italic). […] The gel was dried and analyzed using a PhosphorImager. […]
The specific peptide was modified to improve cell penetration by linking to the amino terminal end of the interfering peptide a specific region of the HIV tat protein of 18 amino acids in length, which renders conjugated peptides cell-penetrable (Schwarze, S. R., et al., 1999, Science 285(5433): 1569-72). The effect of this elongated interfering peptide on E2F was first assessed in vitro as above. […]

A further assay concerns PAI-1 mRNA. Briefly: PAI-1 mRNA induction by insulin at different stages of NIH3T3-L1 differentiation (Northern blot). Type of assay: cell-based. The protocol: NIH3T3-L1 preadipocytes (ATCC No. CL-173) were induced to differentiate into adipocytes by treating confluent cells with a mixture of insulin, dexamethasone and isobutylmethylxanthine followed by a successive change of different media (Student, A. K. et al., 1980, J Biol Chem. 255:4745-4750). In brief, NIH3T3-L1 preadipocytic cells (2×10^5 cells) were grown in 60-mm plastic dishes with 4 ml Dulbecco's modified Eagle's medium (DMEM) supplemented with 10% fetal bovine serum (FBS). Two days after cells reached confluency, the medium was changed to DMEM containing 10% FBS, 10 μg/ml insulin, 1 μM dexamethason, and 0.5 mM isobutylmethylxanthine. Two days later, this medium was replaced with DMEM supplemented only with 10 μg/ml insulin. Subsequently, two days later this medium was withdrawn and replaced with DMEM containing 10% FBS, and thereafter cells were replenished with the same medium every two days.
as §1, with “21067-74).” for “21067-74). Equal RNA loading and transfer to nylon membranes were confirmed by staining rRNA with methylene blue (Herrin, D. L. and G. W. Schmidt, 1988, Biotechniques 6(3): 196-7, 199-200).”

Turning to `COc1cccc(-c2cc(=O)c3ccccc3o2)c1N` [PD98059], the “PAI-1 induction by insulin” value in the assay with PAI-1 expression is given as “suppressed”. Regarding “specific interfering peptide: peptide whose sequence was derived from amino acids 402-419 of E2F1 corresponding to the pRB-binding region of E2F1 (LSPPHEALDYHFGLEEGE; UniProt Q01094 402-419, looked up, fragment)”, the “shift of DNA-protein complexes (E2F DNA-binding, EMSA)” value in assay [1] was “shift from DNA-protein complexes of higher molecular weight forms to complexes of lower molecular weight forms”. For insulin, the “PAI-1 mRNA induction by insulin” value is recorded as “induced to a very low extent” with PAI-1 mRNA (NIH3T3-L1 cells before cells were confluent); “not at all” in the assay on PAI-1 mRNA (NIH3T3-L1 cells when confluent); “induced markedly” with PAI-1 mRNA (terminally differentiated cells (day 4 and 8)).
